The text below walks through data of patent publication US11725015B2, “Macrocyclic compound and uses thereof” (President and Fellows of Harvard College, priority 2017, dated 2023).

Molecules are shown by their SMILES.

For test [1], the target named is T1, tubulin protein purified from porcine brain (Sus scrofa, UniProt P02550+P02554).
T1 construct: lyophilized tubulin protein purified from porcine brain; purchased Cytoskeleton, Inc. BK011P; host or cells: porcine brain (tissue-purified)
The experiment in a line: Cell-free tubulin polymerization assay. The test is classed as biochemical. Particulars: final concentrations 0.625-10 μmol/L. The protocol:
Tubulin Polymerization Assay kit was purchased from Cytoskeleton, Inc. (Cat. #BK011P). The kit contained 1 bottle of lyophilized tubulin protein purified from porcine brain, 3 tubes of lyophilized GTP, 2 bottles of lyophilized assay buffer, and 1 bottle of tubulin glycerol buffer. Assay buffer was prepared by dissolving the contents in 10 mL of deionized and sterilized water. This solution contained 80 mmol/L piperazine-N,N′-bis[2-ethanesulfonic acid] sesquisodium salt, 2.0 mmol/L magnesium chloride, 0.5 mmol/L ethylene glycol-bis(2-amino-ethyl ether) N,N,N′,N′-tetra-acetic acid, pH 6.9, and 10 μmol/L fluorescent reporter. The buffer was stored at −70° C. until use. […]
In the tubulin polymerization assay, reaction mixture was prepared by mixing 820 μL of assay buffer, 17.6 μL of GTP stock solution, and 600 μL of tubulin glycerol buffer. […] Fluorescence emission at 460 nm (excitation wavelength at 360 nm) was measured every 2 minutes for 90 minutes using the SpectraMax® M5e microplate reader (Molecular Devices). Tubulin polymerization was followed by fluorescence enhancement due to the incorporation of a fluorescence reporter into microtubules as polymerization occurred. […]

Test [2] concerns CD31-positive vessel in the FaDu subcutaneous model. In words: Effect on CD31-positive vessel in the FaDu subcutaneous model in mice (Test Example 18). The test is classed as in vivo. Particulars: five days after. On the procedure: A human squamous cell carcinoma of the head and neck (SCCHN) cell line FaDu, which had been cultured in an RPMI-1640 medium containing 10% FBS, and penicillin-streptomycin (culture medium), was adjusted to a concentration of 5×10^7 cells/mL with culture medium to prepare a cell suspension. The cell suspension was inoculated in a volume of 100 μL into a subcutaneous part of a right flank of nude mice, 6 weeks of ages (CAnN.Cg-Foxnlnu/CrlCrlj, female, Charles River Laboratories Japan, Inc.). Ten days after cell inoculation, the mice were grouped such that averages of the tumor volumes were substantially equal among the groups. The experiment was conducted on groups each consisting of 6 mice. Each test compound was dissolved in DMSO and a solution was stored in the freezer before use. Immediately before the administration, the stock solution was diluted with saline. The test compound in saline was intravenously administered at 20 μg/kg, […]. Five days after the single administration, tumor samples were collected and fixed with IHC Zinc Fixative (BD Pharmingen) at 4° C. for 24 hours. Paraffin-embedded tissues were sectioned (3 μm), mounted on positively charged slides, and air-dried. Immunohistochemical staining of CD31 was conducted using Ventana autostainer model Discover XT (Roche Diagnostics) according to the manufacture's protocol. Sections were deparaffinized, conditioned and the antigens were retrieved with CC1 (Ventana Medical Systems). […] The number of blood vessels in the whole tumor was quantified by counting the CD31-positive objects using inform 2 software (PerkinElmer Inc.) Area of the tumor region was measured by assessing the hematoxylin-staining area using inform 2 software (PerkinElmer Inc.) The number of blood vessels was normalized by the area of the tumor region. […] The ratios of blood vessel number in the test compound-dosing groups compared to non-treat group were calculated with the below formula: Tumor vessel ratio=blood vessel number of the test compound-dosing group/blood vessel number of the non-treat group)

T1 sequence (P02554 whole entry): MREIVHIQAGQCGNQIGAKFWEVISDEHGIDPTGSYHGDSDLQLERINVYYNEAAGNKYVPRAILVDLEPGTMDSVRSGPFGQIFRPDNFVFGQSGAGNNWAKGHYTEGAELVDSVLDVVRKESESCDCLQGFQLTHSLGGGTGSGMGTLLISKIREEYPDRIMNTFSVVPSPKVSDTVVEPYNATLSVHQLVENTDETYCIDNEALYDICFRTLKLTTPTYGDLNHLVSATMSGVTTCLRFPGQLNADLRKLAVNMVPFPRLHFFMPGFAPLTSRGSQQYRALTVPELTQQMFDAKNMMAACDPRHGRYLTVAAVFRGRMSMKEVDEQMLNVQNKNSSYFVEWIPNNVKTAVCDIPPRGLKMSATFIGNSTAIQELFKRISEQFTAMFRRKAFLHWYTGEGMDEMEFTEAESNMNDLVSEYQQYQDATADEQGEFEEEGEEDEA
T1 sequence (P02550 whole entry): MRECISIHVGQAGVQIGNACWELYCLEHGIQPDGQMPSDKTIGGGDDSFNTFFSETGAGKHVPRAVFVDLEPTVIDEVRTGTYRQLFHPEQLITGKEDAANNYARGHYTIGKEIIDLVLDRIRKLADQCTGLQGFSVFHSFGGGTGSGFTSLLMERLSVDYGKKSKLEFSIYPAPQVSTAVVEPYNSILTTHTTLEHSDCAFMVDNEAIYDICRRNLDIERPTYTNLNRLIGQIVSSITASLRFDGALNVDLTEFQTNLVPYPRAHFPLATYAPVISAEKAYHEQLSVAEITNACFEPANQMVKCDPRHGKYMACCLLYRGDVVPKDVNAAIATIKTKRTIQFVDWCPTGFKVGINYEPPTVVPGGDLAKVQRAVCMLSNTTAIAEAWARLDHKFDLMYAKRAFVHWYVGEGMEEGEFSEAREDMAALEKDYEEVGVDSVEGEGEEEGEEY

In the case of `C=C1C[C@@H]2CC[C@@]34C[C@H]5O[C@H]6[C@@H](O3)[C@H]3O[C@H](CC[C@@H]3O[C@H]6C5O4)CC(=O)O[C@@H]3[C@@H](C)[C@@H]4O[C@@H]5C[C@]6(C[C@@H]7O[C@]8(C[C@H](C)[C@@H]9O[C@H](CN)[C@H](O)C[C@@H]9O8)C[C@H](C)[C@@H]7O6)O[C@@H]5C[C@@H]4O[C@H]3C[C@H]3O[C@@H](CC[C@@H]1O2)C[C@@H](C)C3=C` [Compound (1)], the “effect on tubulin polymerization” value in test [1] is recorded as “inhibited tubulin polymerization in a concentration-dependent manner”. The “tumor blood vessel number” value in test [2] (single administration 20 μg/kg), in test [2] (single administration 60 μg/kg) and in test [2] (single administration 180 μg/kg) was “increased the tumor blood vessel number” throughout.
